{"source": "ChEMBL document CHEMBL1201862", "about": "“PubChem BioAssay data set” (2004)", "key": {"[1]": {"test_system": "INS1", "test": "beta cell apoptosis inhibitors, cytokine rescue, dose response, luminescence, retest (AID 449756);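 also: cell death triggered by IL-1 beta plus TNF-alpha plus IFN-gamma mixture; protective hits raise ATP signal compared with cytokine alone wells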", "format": "functional, cell-based", "details": "Rattus norvegicus"}, "[2]": {"test": "cytotoxicity in HEK-293T cells, dose response, cytotoxicity control for TCR NF-kB inhibitor project, luminescence, T-cell screen hits (AID 489026);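 also: cells exposed to compound about 14 hours before the viability readout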", "format": "functional, cell-based"}, "[3]": {"biological_target": "T1, Replicative DNA helicase DnaB (Mycobacterium tuberculosis, UniProt P9WMR3)", "T1 sequence (P9WMR3 whole entry)": "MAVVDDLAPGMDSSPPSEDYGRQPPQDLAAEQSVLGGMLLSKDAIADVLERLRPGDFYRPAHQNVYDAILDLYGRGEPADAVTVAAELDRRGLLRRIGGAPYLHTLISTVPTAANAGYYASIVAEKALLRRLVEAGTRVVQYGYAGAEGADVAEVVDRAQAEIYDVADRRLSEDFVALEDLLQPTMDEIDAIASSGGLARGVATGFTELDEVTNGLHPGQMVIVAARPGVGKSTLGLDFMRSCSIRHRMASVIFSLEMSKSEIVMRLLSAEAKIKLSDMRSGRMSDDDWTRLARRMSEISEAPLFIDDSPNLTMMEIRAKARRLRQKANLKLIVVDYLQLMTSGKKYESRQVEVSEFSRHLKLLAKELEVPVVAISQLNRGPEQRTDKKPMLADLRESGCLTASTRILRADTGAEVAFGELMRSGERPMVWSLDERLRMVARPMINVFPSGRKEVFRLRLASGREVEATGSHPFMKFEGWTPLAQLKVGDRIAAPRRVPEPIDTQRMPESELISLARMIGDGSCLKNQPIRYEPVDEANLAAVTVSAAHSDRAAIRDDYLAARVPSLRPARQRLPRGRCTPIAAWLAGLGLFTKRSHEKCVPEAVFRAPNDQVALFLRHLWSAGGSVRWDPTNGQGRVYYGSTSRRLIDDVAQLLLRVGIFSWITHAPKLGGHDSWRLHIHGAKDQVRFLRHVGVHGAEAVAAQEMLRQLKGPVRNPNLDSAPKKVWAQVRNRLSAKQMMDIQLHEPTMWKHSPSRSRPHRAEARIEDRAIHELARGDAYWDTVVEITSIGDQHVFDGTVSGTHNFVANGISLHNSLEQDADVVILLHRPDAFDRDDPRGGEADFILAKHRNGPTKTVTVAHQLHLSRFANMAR", "test": "DnaB intein splicing inhibitors, dose response, biochemical, cell-free fluorescence (AID 449749)", "format": "functional"}, "[4]": {"biological_target": "T2, Protein RecA (Mycobacterium tuberculosis, UniProt P9WHJ3)", "T2 sequence (P9WHJ3 whole entry)": "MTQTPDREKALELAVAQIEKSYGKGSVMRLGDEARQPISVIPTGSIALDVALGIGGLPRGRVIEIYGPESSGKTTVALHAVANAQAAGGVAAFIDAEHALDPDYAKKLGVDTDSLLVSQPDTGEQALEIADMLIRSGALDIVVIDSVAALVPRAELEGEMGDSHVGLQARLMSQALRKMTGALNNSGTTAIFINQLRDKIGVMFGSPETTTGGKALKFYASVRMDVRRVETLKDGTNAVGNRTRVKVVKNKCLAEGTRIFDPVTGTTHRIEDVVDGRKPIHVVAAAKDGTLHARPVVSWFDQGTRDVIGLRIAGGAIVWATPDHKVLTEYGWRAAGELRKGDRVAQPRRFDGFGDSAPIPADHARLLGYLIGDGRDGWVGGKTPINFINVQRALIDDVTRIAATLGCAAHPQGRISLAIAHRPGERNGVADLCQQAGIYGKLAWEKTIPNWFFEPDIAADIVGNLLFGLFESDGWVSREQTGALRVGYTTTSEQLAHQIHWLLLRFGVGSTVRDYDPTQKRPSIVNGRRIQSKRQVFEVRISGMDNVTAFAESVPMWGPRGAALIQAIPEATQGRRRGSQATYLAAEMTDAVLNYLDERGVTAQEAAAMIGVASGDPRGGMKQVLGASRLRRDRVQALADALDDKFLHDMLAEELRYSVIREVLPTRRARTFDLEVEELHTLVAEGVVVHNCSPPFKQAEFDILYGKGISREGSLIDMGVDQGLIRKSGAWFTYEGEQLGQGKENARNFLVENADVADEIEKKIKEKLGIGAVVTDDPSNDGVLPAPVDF", "test": "Fluorescence Cell-Free Homogeneous Dose Retest to Identify Inhibitors of RecA-Intein Splicing Activity. [Related pubchem assays (depositor defined):AID2097, AID2223, AID489010, AID492950]", "format": "functional"}, "[5]": {"biological_target": "T3, Caspase-3 (Homo sapiens, UniProt P42574)", "T3 sequence (P42574 whole entry)": "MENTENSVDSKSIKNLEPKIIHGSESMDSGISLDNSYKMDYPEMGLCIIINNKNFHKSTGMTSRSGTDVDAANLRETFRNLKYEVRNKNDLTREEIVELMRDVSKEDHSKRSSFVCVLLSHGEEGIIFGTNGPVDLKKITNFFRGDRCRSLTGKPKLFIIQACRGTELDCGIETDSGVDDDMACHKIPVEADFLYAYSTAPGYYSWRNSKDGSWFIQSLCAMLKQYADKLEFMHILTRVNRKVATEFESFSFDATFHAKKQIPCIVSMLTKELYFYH", "test": "caspase-3 enzyme inhibitors, selectivity check, dose response, selectivity assay for caspase-6 allosteric inhibitor project, biochemical, fluorescence, cherry-picked samples (AID 743291)"}, "[6]": {"biological_target": "T4, Caspase-6 (Homo sapiens, UniProt P55212)", "T4 sequence (P55212 whole entry)": "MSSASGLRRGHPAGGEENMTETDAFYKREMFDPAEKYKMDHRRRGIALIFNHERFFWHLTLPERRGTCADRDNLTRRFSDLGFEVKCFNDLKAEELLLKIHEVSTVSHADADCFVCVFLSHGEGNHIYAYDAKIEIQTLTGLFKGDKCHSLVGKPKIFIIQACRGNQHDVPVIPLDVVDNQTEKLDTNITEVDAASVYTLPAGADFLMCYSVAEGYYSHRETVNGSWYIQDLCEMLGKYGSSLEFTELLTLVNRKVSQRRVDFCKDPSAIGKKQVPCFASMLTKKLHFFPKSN", "test": "human caspase-6 inhibitors, dose response, biochemical, VEID-R110 fluorescence, cherry-pick (AID 720632)"}, "[7]": {"biological_target": "T5, Caspase-7 (Homo sapiens, UniProt P55210)", "T5 sequence (P55210 whole entry)": "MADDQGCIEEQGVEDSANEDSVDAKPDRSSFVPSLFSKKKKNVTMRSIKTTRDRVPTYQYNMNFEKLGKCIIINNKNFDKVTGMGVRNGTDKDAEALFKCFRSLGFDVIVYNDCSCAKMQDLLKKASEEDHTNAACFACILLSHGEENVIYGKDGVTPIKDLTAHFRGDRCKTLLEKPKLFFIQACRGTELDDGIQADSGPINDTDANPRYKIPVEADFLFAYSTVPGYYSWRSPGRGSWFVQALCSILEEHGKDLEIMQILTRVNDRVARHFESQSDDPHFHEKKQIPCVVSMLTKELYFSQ", "test": "human caspase-7 inhibitors, dose response, selectivity assay for caspase-6 inhibitor project, biochemical, DEVD-R110 fluorescence, cherry-pick (AID 743295)", "format": "[…]"}}, "note": "Calls of active or inactive are those of the source."}
{"smiles": "CCC(=O)NC(c1ccc(OC)cc1)c1cc(Cl)c2cccnc2c1O", "note": "(centres undefined)", "values": [{"measurement": "AC50", "setting": "[1]", "result": "1080 nM (active)"}]}
{"smiles": "CCCCCCCCCCn1c2c(c(=N)c3c1CCC3)CCC2", "values": [{"measurement": "IC50", "setting": "[2]", "result": "38400 nM (inactive)"}, {"measurement": "AC50", "setting": "[3]", "result": "2810 nM (active)"}, {"measurement": "EC50", "setting": "[4]", "result": "1830 nM (active)"}]}
{"smiles": "Cn1nc(-c2ccccn2)nc2c(=O)n(C)c(=O)nc1-2", "values": [{"measurement": "IC50", "setting": "[2]", "result": "4260 nM (active)"}, {"measurement": "AC50", "setting": "[3]", "result": "573 nM (active)"}, {"measurement": "AC50", "setting": "[1]", "result": "1920 nM (active)"}, {"measurement": "AC50", "setting": "[5]", "result": "6730 nM (active)"}, {"measurement": "EC50", "setting": "[4]", "result": "19.1 nM (active)"}, {"measurement": "AC50", "setting": "[6]", "result": "219 nM (active)"}, {"measurement": "AC50", "setting": "[7]", "result": "371 nM (active)"}]}
{"smiles": "COc1ccc(NS(=O)(=O)c2ccc3c(c2)[C@H]2C=CC[C@H]2[C@@H](c2ccc(C(=O)O)cc2)N3)cc1", "values": [{"measurement": "AC50", "setting": "[5]", "result": "18200 nM (active)"}, {"measurement": "AC50", "setting": "[6]", "result": "4430 nM (active)"}, {"measurement": "AC50", "setting": "[7]", "result": "> 70000 nM (inactive)"}]}
